Assay results reported in patent US9340577B2, “HLA binding motifs and peptides and their uses” (priority 1992, dated 2016).
No end group written: not given here.

Columns and labels:
Test in all cases: biochemical
DR4w4 (DRB1*0401) = DR4w4 (DRB1*0401) (Homo sapiens, UniProt P01903+P01911, A100K/A169T/F76Y/I96L/K127E/L162R/M171V/N62H/P40V/Q125Y/R42H/S133A/S149N/S66Y/V115G/V209L/W38E); type: binding
DR7 (DRB1*0701) = DR7 (DRB1*0701) (Homo sapiens, UniProt P01903+P01911, A100R/A102G/A103Q/D57E/D86V/E43K/F76Y/K127E/L162R/M171V/P40G/Q125H/Q99D/R33Q/R42Y/R54Q/S133A/S66F/T210M/V115G/Y107V/Y59L/Y89S); type: binding
DRB1*0802 = DRB1*0802 (Homo sapiens, UniProt P01903+P01911, A100R/A103L/A169T/F76Y/H45Y/I96F/K41T/L162R/M171V/P40S/Q125H/Q178H/Q39Y/Q99D/R218S/R42G/S66Y/V115G/W38E); type: binding
DRB1*0901 = DRB1*0901 (Homo sapiens, UniProt P01903+P01911, A100R/A103E/D57H/D86V/F55Y/F60I/F76Y/I96F/K127E/L162R/M171V/P40D/Q125H/Q99R/R33Q/R42F/S133A/S66N/T210M/V115G/W38K/Y107V/Y59G/Y89S); type: binding
DRB1*1201 = DRB1*1201 (Homo sapiens, UniProt P01903+P01911, A100R/A169T/D57E/D86V/F55L/H45Y/K41T/L162R/M171V/P40S/Q125H/Q178H/Q39Y/Q99D/R42G/S66L/T262R/V114A/V67L/W38E/Y59H/Y61H/Y89S); type: binding
DRB1*1501 = DRB1*1501 (Homo sapiens, UniProt P01903+P01911); type: binding
DRB3*0101 = DRB3*0101 (Homo sapiens, UniProt P01903+P79483); type: binding
DRB4*0101 = DRB4*0101 (Homo sapiens, UniProt P01903+P13762, G164S); type: binding
DRB1*1101 = DRB1*1101 (Homo sapiens, UniProt P01903+P01911, A100R/A169T/A87E/I96F/K41T/L162R/M171V/P40S/Q125H/Q178H/Q39Y/Q99D/R42S/S66Y/T262R/V115G/W38E)
Chain of DRB1*1101 (P01903 26-254 limits assumed, other chains not shown): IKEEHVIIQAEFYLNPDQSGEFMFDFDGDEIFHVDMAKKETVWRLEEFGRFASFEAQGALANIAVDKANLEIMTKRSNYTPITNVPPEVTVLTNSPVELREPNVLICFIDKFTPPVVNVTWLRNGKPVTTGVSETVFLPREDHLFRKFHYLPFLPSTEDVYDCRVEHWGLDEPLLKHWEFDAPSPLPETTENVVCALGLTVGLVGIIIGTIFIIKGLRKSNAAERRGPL

DRB5*0101 = DRB5*0101 (Homo sapiens, UniProt P01903+Q30154)
DRB1*1302 = DRB1*1302 (Homo sapiens, UniProt P01903+P01911, A100E/A169T/K41T/L162R/M171V/P40S/Q125H/Q178H/Q39Y/Q99D/R42S/S66N/T262R/V115G/W38E/Y61H); type: binding
Chain of DRB1*1302 (P01903 26-254 limits assumed, other chains not shown): as above

DR1 (DRB1*0101) = DR1 (DRB1*0101) (Homo sapiens, UniProt P01903+P01911, A100R/D57E/F55L/F60I/F76Y/I96L/L162R/M171V/P40L/Q125E/R42F/V115G/Y59C); type: binding

| Molecule | IC50 (DR4w4 (DRB1*0401)) | IC50 (DR7 (DRB1*0701)) | IC50 (DRB1*0802) | IC50 (DRB1*0901) | IC50 (DRB1*1201) | IC50 (DRB1*1501) | IC50 (DRB3*0101) | IC50 (DRB4*0101) | IC50 (DRB1*1101; Binding affinity DRB1 *1101) | IC50 (DRB1*1101; DRB1*1101) | IC50 (DRB5*0101; Binding affinity DRB5 *0101) | IC50 (DRB5*0101; DRB5*0101) | IC50 (DRB1*1302) | IC50 (DR1 (DRB1*0101)) |
| --- | --- | --- | --- | --- | --- | --- | --- | --- | --- | --- | --- | --- | --- | --- |
| CC[C@H](C)[C@H](N)C(=O)N[C@@H](CO)C(=O)N[C@H](C(=O)N[C@H](C(=O)N[C@@H](CC(N)=O)C(=O)N[C@@H](CCC(=O)O)C(=O)N[C@@H](CC(=O)O)C(=O)NCC(=O)N[C@@H](CC(N)=O)C(=O)N[C@@H](CCC(=O)O)C(=O)N[C@H](C(=O)N[C@@H](Cc1ccccc1)C(=O)N[C@@H](CC(N)=O)C(=O)N[C@H](C(=O)N[C@@H](CO)C(=O)O)[C@@H](C)O)[C@@H](C)CC)[C@@H](C)CC)[C@@H](C)CC [Peptide 68.0166] | > 20 µM | > 20 µM | > 20 µM | > 20 µM | 10.7 µM | 3.01 µM | 0.035 µM | 6.39 µM | > 20 µM | > 18.9 µM | > 20 µM | > 37.8 µM | – | – |
| KSRLQGGVLVNEILN [Peptide 68.0046] | > 20 µM | – | > 20 µM | – | 9.6 µM | > 20 µM | > 20 µM | – | > 20 µM | – | > 20 µM | – | – | – |
| CSCC[C@H](NC(=O)[C@H](CC(=O)O)NC(=O)[C@H](Cc1ccc(O)cc1)NC(=O)[C@H](CC(C)C)NC(=O)[C@@H]1CCCN1C(=O)[C@H](Cc1c[nH]cn1)NC(=O)[C@@H]1CCCN1)C(=O)N[C@@H](CO)C(=O)N[C@@H](CC(C)C)C(=O)N[C@@H](CC(C)C)C(=O)N[C@@H](CCCCN)C(=O)N[C@@H](CC(N)=O)C(=O)N[C@@H](CCCNC(=N)N)C(=O)N[C@@H](Cc1ccccc1)C(=O)N[C@@H](CC(C)C)C(=O)O [Peptide 68.0071] | > 20 µM | – | > 20 µM | – | 0.487 µM | – | > 20 µM | – | > 20 µM | – | – | – | – | – |
| QWVLTAAHCLKKNSQ [Peptide 68.0004] | > 20 µM | – | > 20 µM | – | > 20 µM | > 20 µM | > 20 µM | – | – | – | – | – | > 20 µM | – |
| CC(C)C[C@H](NC(=O)[C@H](CCC(N)=O)NC(=O)[C@H](C)NC(=O)[C@H](CC(N)=O)NC(=O)[C@H](CCCCN)NC(=O)[C@@H](NC(=O)[C@H](CCCCN)NC(=O)[C@H](CC(N)=O)NC(=O)CN)C(C)C)C(=O)N[C@@H](C)C(=O)NCC(=O)N[C@@H](C)C(=O)N[C@@H](CCCCN)C(=O)NCC(=O)N[C@H](C(=O)O)C(C)C [Peptide 68.0097] | – | > 20 µM | > 20 µM | – | > 20 µM | > 20 µM | > 20 µM | – | > 20 µM | – | – | – | > 20 µM | – |
| CSCC[C@H](NC(=O)CNC(=O)[C@H](CC(C)C)NC(=O)[C@H](CCC(N)=O)NC(=O)[C@@H](NC(=O)[C@H](CC(C)C)NC(=O)[C@H](CCC(N)=O)NC(=O)CNC(=O)[C@@H](N)Cc1ccccc1)[C@@H](C)O)C(=O)N[C@@H](CCC(=O)O)C(=O)N[C@@H](CCC(N)=O)C(=O)N[C@@H](Cc1c[nH]cn1)C(=O)N[C@@H](Cc1ccc(O)cc1)C(=O)N[C@@H](CCC(=O)O)C(=O)N[C@@H](CC(C)C)C(=O)O [Peptide 68.0028] | – | > 20 µM | > 20 µM | > 20 µM | 0.653 µM | > 20 µM | > 20 µM | – | > 20 µM | – | – | – | > 20 µM | – |
| PEEFLRPRSLQCVSL [Peptide 68.0015] | > 20 µM | – | – | – | 6.02 µM | – | > 20 µM | – | – | – | > 20 µM | – | – | – |
| LSGLHGQDLFGIWSK [Peptide 68.0040] | > 20 µM | > 20 µM | > 20 µM | > 20 µM | 7.89 µM | > 20 µM | > 20 µM | – | > 20 µM | – | > 20 µM | – | > 20 µM | – |
| CC(C)C[C@H](NC(=O)CNC(=O)[C@H](CC(N)=O)NC(=O)[C@@H](N)Cc1ccc(O)cc1)C(=O)N[C@@H](CC(C)C)C(=O)N1CCC[C@H]1C(=O)N1CCC[C@H]1C(=O)N[C@@H](Cc1ccc(O)cc1)C(=O)N[C@@H](C)C(=O)N[C@@H](CO)C(=O)N[C@@H](CS)C(=O)N[C@@H](Cc1c[nH]cn1)C(=O)N[C@@H](CC(C)C)C(=O)N[C@H](C(=O)N[C@@H](CCC(=O)O)C(=O)O)[C@@H](C)O [Peptide 68.0054] | – | > 20 µM | – | – | > 20 µM | – | > 20 µM | > 20 µM | – | – | – | – | – | – |
| GQRVPVSHSFPHPLY [Peptide 68.0005] | > 20 µM | – | > 20 µM | – | 5.51 µM | – | > 20 µM | – | > 20 µM | – | > 20 µM | – | – | – |
| CSCC[C@H](NC(=O)[C@@H](NC(=O)[C@H](CCCCN)NC(=O)[C@@H](NC(=O)[C@H](C)NC(=O)[C@H](CC(=O)O)NC(=O)[C@@H](N)[C@@H](C)O)C(C)C)C(C)C)C(=O)N[C@@H](CC(=O)O)C(=O)N[C@@H](CC(C)C)C(=O)N1CCC[C@H]1C(=O)N[C@H](C(=O)N[C@@H](CCC(N)=O)C(=O)N[C@@H](CCC(=O)O)C(=O)N1CCC[C@H]1C(=O)N[C@@H](C)C(=O)O)[C@@H](C)O [Peptide 68.0074] | > 20 µM | > 20 µM | > 20 µM | > 20 µM | > 20 µM | > 20 µM | > 20 µM | – | > 20 µM | – | > 20 µM | – | > 20 µM | > 20 µM |
| CC[C@H](C)[C@H](NC(=O)[C@@H]1CCCN1C(=O)[C@H](CC(=O)O)NC(=O)[C@@H](NC(=O)[C@@H]1CCCN1C(=O)[C@H](Cc1ccccc1)NC(=O)[C@@H](NC(=O)[C@H](CC(=O)O)NC(=O)[C@@H](NC(=O)[C@@H]1CCCN1C(=O)[C@H](CO)NC(=O)[C@@H](N)CCCNC(=N)N)[C@@H](C)CC)[C@@H](C)O)[C@@H](C)O)C(=O)N[C@@H](CCCCN)C(=O)N[C@@H](CCC(=O)O)C(=O)N[C@@H](CO)C(=O)O [Peptide 68.0026] | – | > 20 µM | > 20 µM | – | > 20 µM | – | > 20 µM | – | > 20 µM | – | > 20 µM | – | > 20 µM | > 20 µM |
| CC[C@H](C)[C@H](NC(=O)[C@@H]1CCCN1C(=O)[C@H](CCC(N)=O)NC(=O)[C@@H](N)Cc1c[nH]c2ccccc12)C(=O)N1CCC[C@H]1C(=O)N[C@H](C(=O)N[C@@H](Cc1c[nH]cn1)C(=O)N[C@H](C(=O)N[C@H](C(=O)N1CCC[C@H]1C(=O)N[C@@H](CC(C)C)C(=O)N[C@@H](CO)C(=O)N[C@@H](CCC(=O)O)C(=O)N[C@@H](CC(=O)O)C(=O)N[C@@H](CCC(N)=O)C(=O)O)C(C)C)[C@@H](C)O)C(C)C [Peptide 68.0039] | > 20 µM | – | > 20 µM | – | > 20 µM | > 20 µM | > 20 µM | – | > 20 µM | – | > 20 µM | – | – | – |
| CC(C)C[C@H](NC(=O)CNC(=O)[C@H](CC(N)=O)NC(=O)[C@H](Cc1ccc(O)cc1)NC(=O)[C@@H](NC(=O)[C@H](CC(=O)O)NC(=O)[C@H](CC(C)C)NC(=O)[C@H](C)N)C(C)C)C(=O)N[C@@H](CC(C)C)C(=O)N1CCC[C@H]1C(=O)N1CCC[C@H]1C(=O)N[C@@H](Cc1ccc(O)cc1)C(=O)N[C@@H](C)C(=O)N[C@@H](CO)C(=O)N[C@@H](CS)C(=O)O [Peptide 68.0052] | – | > 20 µM | – | > 20 µM | 7.57 µM | – | > 20 µM | > 20 µM | – | – | > 20 µM | – | > 20 µM | – |
| CC(C)C[C@H](NC(=O)CNC(=O)[C@H](CC(N)=O)NC(=O)[C@H](Cc1ccc(O)cc1)NC(=O)[C@@H](NC(=O)[C@H](CC(=O)O)NC(=O)[C@@H](N)CC(C)C)C(C)C)C(=O)N[C@@H](CC(C)C)C(=O)N1CCC[C@H]1C(=O)N1CCC[C@H]1C(=O)N[C@@H](Cc1ccc(O)cc1)C(=O)N[C@@H](C)C(=O)N[C@@H](CO)C(=O)N[C@@H](CS)C(=O)N[C@@H](Cc1c[nH]cn1)C(=O)O [Peptide 68.0053] | – | > 20 µM | – | > 20 µM | 9.75 µM | – | > 20 µM | > 20 µM | – | – | > 20 µM | – | > 20 µM | – |
| GRAVCGGVLVHPQWV [Peptide 68.0062] | > 20 µM | – | > 20 µM | – | 16.4 µM | – | > 20 µM | – | > 20 µM | – | – | – | – | – |
